Values quoted from earlier work, collected in patent US20130048853A1, “Adsorbent and Method for Producing Same” (HITACHI HIGH-TECHNOLOGIES CORPORATION, priority 2010, published 2013).
“And” between values parts separate entries of the source, which are not always exact repeats. Identical values can stand only once. Like-named read-outs stand apart in the source and are kept apart here.

[1] = source not stated, calculated or actual values may be applied

Structure (SMILES)	logP (octanol-water distribution coefficient) [1]	logP (octanol-water distribution coefficient)
CO[C@H]1C[C@@H]2CC[C@@H](C)[C@@](O)(O2)C(=O)C(=O)N2CCCC[C@H]2C(=O)O[C@H]([C@H](C)C[C@@H]2CC[C@@H](OCCO)[C@H](OC)C2)CC(=O)[C@H](C)/C=C(\C)[C@@H](O)[C@@H](OC)C(=O)[C@H](C)C[C@H](C)/C=C/C=C/C=C/1C [everolimus]	3.4 and 3.35	–
O=C1NC(=O)C(c2ccccc2)(c2ccccc2)N1 [phenyloin]	–	2.5
CO[C@H]1C[C@@H]2CC[C@@H](C)[C@@](O)(O2)C(=O)C(=O)N2CCCC[C@H]2C(=O)O[C@H]([C@H](C)C[C@@H]2CC[C@@H](O)[C@H](OC)C2)CC(=O)[C@H](C)/C=C(\C)[C@@H](O)[C@@H](OC)C(=O)[C@H](C)C[C@H](C)/C=C/C=C/C=C/1C [rapamycin]	3.5	–
